How the values were obtained:
HEPG2 = HEPG2 cell viability (MTS); assay type: cell-based, human; conditions: 72 hours, concentrations giving complete loss of JAK3-dependent cell viability (0-10 μM)
Protocol: FIGS. 2A-2F. Selective inhibition of JAK3 by EP009 results in loss of JAK3-dependent tumor cell line viability with no detectable off-target effects in key cell types. (A) Chemical structure of EP009 (M.W. 224.34). (B) Kit225 or (C) BaF/3 cells cultured in the presence of IL-2 or IL-3, respectively, were treated with vehicle (PBS; lane a) or increasing amounts of EP009 (0-50 μM; lanes b-h) for 12 hours. Cells were then lysed, clarified, and immunoprecipitated (IP) with anti-JAK3 (α-JAK3) or anti-JAK2 (α-JAK2), and subjected to Western blot (WB) analysis with anti-phosphotyrosine (α-pY). Blots were stripped and reprobed with corresponding antibody to verify equivalent protein loading. […] (E) Kit225 or BaF/3 cells were cultured with increasing amounts of EP009 (0-10 μM) for 72 hours and cell viability measured with the MTS tetrazolium salt assay. Values represent mean absorbance (OD490-OD650 nm) normalized to vehicle (PBS) treated control cells, while error bars represent the standard deviation (n=3). (F) HEK293, HEPG2, or naïve primary human PBMCs were cultured with increasing amounts of EP009 (0-10 μM) for 72 hours and cell viability measured with the MTS tetrazolium salt assay. Values represent mean absorbance (OD490-OD650 nm) normalized to vehicle (PBS) treated control cells, while error bars represent the standard deviation (n=3). […]

SUP-M2 cells = assay: SUP-M2 cell viability (MTS); assay type: cell-based; conditions: Homo sapiens; SUP-M2, 72 hours
Protocol: FIGS. 7A-7C. EP009 reduces ALCL cell viability through induction of caspase 3 mediated apoptosis. (A) SUP-M2, SU-DHL-1 or H2228 cells were cultured with increasing amounts of EP009 (0-10 μM) for 72 hours and cell viability measured with the MTS tetrazolium salt assay. Values represent mean absorbance (OD490-OD650 nm) normalized to vehicle (PBS) treated control cells, while error bars represent the standard deviation (n=3). (B) SU-DHL-1 cells were treated with vehicle (PBS) or increasing amounts of EP009 (0-50 μM) for 24 hours. Cells were then lysed, clarified, and subjected to Luminex multiplex analysis to detect activated caspase 3 and (C) cleaved PARP. Values represent MFI normalized to corresponding GAPDH MFI, while error bars represent the standard deviation (n=2). Representative data from three independent experiments are shown. Statistical significance was determined using Student's t-test. (*, p<0.05).
Cell viability was assessed with 3-(4,5-dimethylthiazol-2-yl)-5-(3-carboxymethoxyphenyl)-2-(4-sulfophenyl)-2H-tetrazolium salt (MTS) reagent (Promega) in triplicates according to the manufacturer's instructions. Three independent experiments were performed. The error bars represent standard deviation.

[1] = molecular target: ABL1(T315I)-phosphorylated (Homo sapiens, UniProt P00519, T315I); assay: Kinase panel: ABL1(T315I)-phosphorylated; assay type: biochemical; conditions: 10 μM EP009
Protocol: (§1) Achieving JAK3 selectivity remains a significant challenge in the development of new small molecules for the treatment of cancer and immune-derived diseases. As such, the inventors employed cell-based screening assays of small-molecule libraries based upon the chemical scaffold of the established JAK3 inhibitor NC1153 (Stepkowski et al., J Immunol. (2005), 175(7):4236-4246) EP009 (FIG. 2A) was selected as a lead compound due to improved intrinsic stability (>95% purity in various solvents at 37° C. for 24 hours; FIG. 3) and high-degree of JAK3 selectivity. To test JAK3 versus JAK2 specificity of EP009, the IL-2/JAK3-dependent Kit225, and IL-3/JAK2-dependent BaF/3 cell lines were used. Kit225 and BaF/3 cells growing in the presence of IL-2 or IL-3, respectively, were treated with ascending concentrations of EP009 for 12 hours and cellular JAK3 and JAK2 tyrosine phosphorylation levels detected by Western blot analysis (FIGS. 2B and 2C). Following densitometric analysis, EP009 was determined to dose-dependently reduce IL-2-mediated JAK3 tyrosine phosphorylation with a cellular 50% inhibitory concentration (IC50) between 10 and 20 μM (FIG. 2B). […] To globally evaluate specificity, the inhibitory activity of EP009 was measured against a panel of protein kinases distributed throughout the kinome using the scanEDGE profiling service (KINOMEscan). […]

IGF1R = IGF1R (Homo sapiens, UniProt P08069); assay: Kinase panel: IGF1R; assay type: biochemical; conditions: 10 μM EP009
Sequence of IGF1R (P08069 31-1367): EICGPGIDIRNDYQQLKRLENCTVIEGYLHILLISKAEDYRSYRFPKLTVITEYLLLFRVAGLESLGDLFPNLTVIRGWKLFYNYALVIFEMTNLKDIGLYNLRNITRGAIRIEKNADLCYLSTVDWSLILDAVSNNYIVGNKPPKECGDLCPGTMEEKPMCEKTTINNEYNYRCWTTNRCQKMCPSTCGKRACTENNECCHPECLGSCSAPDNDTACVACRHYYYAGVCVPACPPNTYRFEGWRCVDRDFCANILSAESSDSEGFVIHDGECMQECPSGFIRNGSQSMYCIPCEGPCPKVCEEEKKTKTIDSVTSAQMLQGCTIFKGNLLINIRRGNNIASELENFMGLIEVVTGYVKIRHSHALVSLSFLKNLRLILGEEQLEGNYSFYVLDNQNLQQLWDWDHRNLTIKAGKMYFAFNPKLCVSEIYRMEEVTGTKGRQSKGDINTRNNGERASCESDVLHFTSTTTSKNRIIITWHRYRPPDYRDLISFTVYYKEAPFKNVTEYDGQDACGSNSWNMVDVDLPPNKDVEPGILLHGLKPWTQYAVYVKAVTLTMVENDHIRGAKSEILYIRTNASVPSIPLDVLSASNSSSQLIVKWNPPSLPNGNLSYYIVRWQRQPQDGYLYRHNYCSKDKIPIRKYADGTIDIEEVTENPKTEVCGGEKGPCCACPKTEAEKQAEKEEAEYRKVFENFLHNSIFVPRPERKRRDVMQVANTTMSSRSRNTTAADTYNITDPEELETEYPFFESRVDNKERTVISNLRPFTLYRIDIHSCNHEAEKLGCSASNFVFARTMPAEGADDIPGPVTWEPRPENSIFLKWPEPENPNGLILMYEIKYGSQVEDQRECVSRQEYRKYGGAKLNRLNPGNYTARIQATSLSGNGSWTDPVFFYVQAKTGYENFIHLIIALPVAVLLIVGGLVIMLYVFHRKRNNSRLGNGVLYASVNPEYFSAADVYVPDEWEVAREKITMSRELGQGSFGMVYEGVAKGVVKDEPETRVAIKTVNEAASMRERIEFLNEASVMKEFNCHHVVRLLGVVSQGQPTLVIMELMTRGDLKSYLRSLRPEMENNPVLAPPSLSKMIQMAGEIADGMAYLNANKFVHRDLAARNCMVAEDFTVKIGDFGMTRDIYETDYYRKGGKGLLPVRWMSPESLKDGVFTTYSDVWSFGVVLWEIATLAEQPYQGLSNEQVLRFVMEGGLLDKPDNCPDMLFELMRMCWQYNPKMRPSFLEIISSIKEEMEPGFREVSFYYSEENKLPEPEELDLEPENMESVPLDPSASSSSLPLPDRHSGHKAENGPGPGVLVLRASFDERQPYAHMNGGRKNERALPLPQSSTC
Protocol: as §1

JNK2 = JNK2 (Homo sapiens, UniProt P45984); assay: Kinase panel: JNK2; assay type: biochemical; conditions: 10 μM EP009
Sequence of JNK2 (P45984 whole entry): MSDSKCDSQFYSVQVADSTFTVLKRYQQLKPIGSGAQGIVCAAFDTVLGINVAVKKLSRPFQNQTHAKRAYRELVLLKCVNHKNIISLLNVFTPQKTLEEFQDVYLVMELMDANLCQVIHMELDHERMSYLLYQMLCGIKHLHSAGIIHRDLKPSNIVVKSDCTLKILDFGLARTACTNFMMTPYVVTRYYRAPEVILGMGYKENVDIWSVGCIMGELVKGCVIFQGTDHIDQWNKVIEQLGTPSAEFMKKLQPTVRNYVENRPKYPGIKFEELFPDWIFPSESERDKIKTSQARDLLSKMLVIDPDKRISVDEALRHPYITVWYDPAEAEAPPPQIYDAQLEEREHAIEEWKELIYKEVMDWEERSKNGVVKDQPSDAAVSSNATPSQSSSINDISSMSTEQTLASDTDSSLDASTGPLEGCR
Protocol: as §1

LKB1 = LKB1 (Homo sapiens, UniProt Q15831); assay: Kinase panel: LKB1; assay type: biochemical; conditions: 10 μM EP009
Sequence of LKB1 (Q15831 whole entry): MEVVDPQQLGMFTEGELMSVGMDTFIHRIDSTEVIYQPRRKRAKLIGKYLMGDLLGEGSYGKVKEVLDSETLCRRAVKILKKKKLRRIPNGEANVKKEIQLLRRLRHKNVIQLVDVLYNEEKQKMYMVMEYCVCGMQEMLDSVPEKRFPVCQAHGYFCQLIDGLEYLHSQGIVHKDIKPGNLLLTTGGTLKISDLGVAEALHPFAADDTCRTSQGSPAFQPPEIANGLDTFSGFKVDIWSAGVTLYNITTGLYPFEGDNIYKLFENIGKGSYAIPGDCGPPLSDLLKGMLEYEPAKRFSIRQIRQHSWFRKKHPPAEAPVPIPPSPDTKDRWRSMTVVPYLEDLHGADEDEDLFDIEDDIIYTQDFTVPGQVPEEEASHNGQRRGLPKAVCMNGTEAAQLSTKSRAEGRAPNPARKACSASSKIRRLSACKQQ
Protocol: as §1

MKNK2 = MKNK2 (Homo sapiens, UniProt Q9HBH9); assay: Kinase panel: MKNK2; assay type: biochemical; conditions: 10 μM EP009
Sequence of MKNK2 (Q9HBH9 whole entry): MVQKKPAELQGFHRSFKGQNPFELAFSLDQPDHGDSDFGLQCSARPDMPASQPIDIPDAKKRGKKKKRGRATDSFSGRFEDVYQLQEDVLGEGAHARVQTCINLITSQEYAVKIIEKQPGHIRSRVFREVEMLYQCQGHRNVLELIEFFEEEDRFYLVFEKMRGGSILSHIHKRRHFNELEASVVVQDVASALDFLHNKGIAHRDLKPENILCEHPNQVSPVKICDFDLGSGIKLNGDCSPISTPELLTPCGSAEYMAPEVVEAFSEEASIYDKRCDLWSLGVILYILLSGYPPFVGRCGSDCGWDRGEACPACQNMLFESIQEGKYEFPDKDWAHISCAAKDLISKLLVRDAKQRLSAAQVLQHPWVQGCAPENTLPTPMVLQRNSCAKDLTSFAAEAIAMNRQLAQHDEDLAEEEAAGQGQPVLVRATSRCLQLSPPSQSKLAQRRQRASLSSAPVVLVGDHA
Protocol: as §1

PAK1 = PAK1 (Homo sapiens, UniProt Q13153); assay: Kinase panel: PAK1; assay type: biochemical; conditions: 10 μM EP009
Sequence of PAK1 (Q13153 whole entry): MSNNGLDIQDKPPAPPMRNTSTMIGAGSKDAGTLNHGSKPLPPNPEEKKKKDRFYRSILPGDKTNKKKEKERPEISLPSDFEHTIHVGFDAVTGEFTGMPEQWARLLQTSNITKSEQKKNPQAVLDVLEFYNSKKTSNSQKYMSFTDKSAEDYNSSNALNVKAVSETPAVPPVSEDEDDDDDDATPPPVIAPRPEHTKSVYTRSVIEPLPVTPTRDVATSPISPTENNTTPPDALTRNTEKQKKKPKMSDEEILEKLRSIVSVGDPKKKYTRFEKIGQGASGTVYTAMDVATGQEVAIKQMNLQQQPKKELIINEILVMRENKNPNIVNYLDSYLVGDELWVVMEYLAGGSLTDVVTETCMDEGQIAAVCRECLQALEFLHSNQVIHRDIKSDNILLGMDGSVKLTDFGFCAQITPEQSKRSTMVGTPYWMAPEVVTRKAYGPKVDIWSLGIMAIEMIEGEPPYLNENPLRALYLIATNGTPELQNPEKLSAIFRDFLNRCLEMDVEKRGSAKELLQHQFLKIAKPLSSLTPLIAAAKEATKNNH
Protocol: as §1

Compound: C=C1CCCCCCCCCC(CO)C1=O (centres unmarked) [EP009, 2-(Hydroxymethyl)-12-methylenecyclododecanone]
- effect on HEPG2 cell viability (HEPG2): no detectable loss of cell viability
- IC50 (SUP-M2 cells): 5 µM
- Kinase Activity (% of Control) [1]: 100 % of Control
- Kinase Activity (% of Control) (IGF1R): 100 % of Control
- Kinase Activity (% of Control) (JNK2): 100 % of Control
- Kinase Activity (% of Control) (LKB1): 100 % of Control
- Kinase Activity (% of Control) (MKNK2): 100 % of Control
- Kinase Activity (% of Control) (PAK1): 100 % of Control
